The values that follow come from publication PMC7956567, “Aqueous Solubility of Organic Compounds for Flow Battery Applications: Symmetry and Counter Ion Design to Avoid Low-Solubility Polymorphs” (Molecules, 2021).

A short description of series [1]: Solubility by NMR method with imidazole as internal standard. In kind it is physicochemical. The text has this: (§1) Figure 3 illustrates the two methods used to determine solubility. The first method was gravimetry which required a higher amount of analyte to reduce any error arising from possible co-crystalized compounds. This method is easy to realize without the need for high-tech equipment, and its result is also a reference for the other method performed by NMR spectroscopy. The NMR method required only a small quantity of the analyte and was more accurate as no co-crystalized compounds were counted in its homogeneous solution phase.
The NMR spectra used to determine the solubility were recorded with a known amount of imidazole as the internal standard.
^1H NMR spectra were recorded in DMSO-d6 or CDCl3 solution at room temperature, on a Varian Unity Inova 500 spectrometer (Bruker Corp. Oxford, UK) (500 and 125 MHz for ^1H NMR and APT-NMR spectra, respectively), with the residual solvent signal as the lock and imidazole as the internal standard (only for solubility determination). Chemical shifts (δ) and coupling constants (J) are given in ppm and Hz, respectively.

On the set-up of series [2]: method as in doi:10.1149/1945-7111/ab7550. The settings on record: water; disodium salts; cited from earlier work.
The nature of a further series: Solubility by gravimetry. The class given is physicochemical. The settings on record: aqueous buffer, thermodynamic from solid, 1 M sulfuric acid, first isolated polymorph.
Description: as §1

[3] abbreviates: 1 M acid, counter ion PO3 3− (phosphate), aqueous buffer, thermodynamic from solid, 1 M acid, counter ion PO3 3− [sic] (phosphate), read-out: Solubility in 1 M acid, PO3 3−.
Setting [4] is: 1 M sulfuric acid, aqueous buffer, thermodynamic from solid, 1 M sulfuric acid, counter ion SO4 2−, final (more stable) polymorph, read-out: Solubility in 1 M acid, SO4 2−.

In brackets after ≈: the same amount, converted by molar mass. Several values for one entry are separate records, joined by “and”; a condition that tells them apart may be missing. Equal values may be shown once. Where a name gives a salt, the structure may show the parent alone.

As to “2,3-dimethyl-5-[(morpholin-4-yl)methyl]benzene-1,4-diol [MMHQ]”, the “Solubility in 1 M acid, ClO4−” value in series [1] (1 M acid, counter ion ClO4−) was 20 mM. In series [1] (1 M acid, counter ion Cl−, NMR method, validated by gravimetric analysis), the “Solubility in 1 M acid, Cl−” value is recorded as 0.07 ^1 M. Also, in series [1] (1 M acid, counter ion PO3 3− [sic] (phosphate)), the “Solubility in 1 M acid, PO3 3−” value came out at 0.48 M. The “Solubility in 1 M acid, SO4 2−” value in series [1] (1 M sulfuric acid, counter ion SO4 2−, final (more stable) polymorph) was 480 mM.
In the case of `O=C1c2cccc(S(=O)(=O)[O-])c2C(=O)c2cccc(S(=O)(=O)[O-])c21.[Na+].[Na+]` [1,5-AQDSNa2, 9,10-dioxo-9,10-dihydroanthracene-1,5-disulfonic acid disodium salt], the Aqueous solubility in series [2] was 70 mM.
As for `O=C1c2ccc(S(=O)(=O)[O-])cc2C(=O)c2ccc(S(=O)(=O)[O-])cc21.[Na+].[Na+]` [2,6-AQDSNa2, 9,10-dioxo-9,10-dihydroanthracene-2,6-disulfonic acid disodium salt, reference compound], the solubility in series [1] (water, disodium salt, NMR method with imidazole as internal standard, read-out: Aqueous solubility) is 40 mM. Also, the Aqueous solubility entry in series [2] is “below 0.1 M”.
On to `O=C1c2ccc(S(=O)(=O)O)cc2C(=O)c2cc(S(=O)(=O)O)ccc21` [2,7-AQDS disodium salt, 9,10-dioxo-9,10-dihydroanthracene-2,7-disulfonic acid], for which the Aqueous solubility in series [2] is 580 mM and 740 mM.
As to `Oc1cc(CN2CCOCC2)c(O)cc1CN1CCOCC1` [DMHQ, 2,5-bis[(morpholin-4-yl)methyl]benzene-1,4-diol], the solubility in “Solubility by gravimetry” was 1700 mM (≈ 524 mg/mL); in series [1] (1 M acid, counter ion ClO4−, aqueous buffer, thermodynamic from solid, 1 M acid, counter ion ClO4−, read-out: Solubility in 1 M acid, ClO4−), 10 mM (≈ 3.08 mg/mL); in series [1] (1 M acid, counter ion Cl−, thermodynamic from solid, 1 M acid, counter ion Cl−, NMR method, validated by gravimetric analysis, read-out: Solubility in 1 M acid, Cl−) it was 30 mM (≈ 9.25 mg/mL); in series [1] (setting [3]) it was 530 mM (≈ 163 mg/mL); in series [1] (setting [4]), 80 mM (≈ 24.7 mg/mL); in series [1] (1 M sulfuric acid, one year later, new polymorph, method not given, read-out: Solubility in 1 M sulfuric acid one year later), under 100 mM.
For the molecule `Cc1c(O)c(C)c(CN2CCOCC2)c(O)c1CN1CCOCC1` [asym-DDHQ, 2,6-dimethyl-3,5-bis[(morpholin-4-yl)methyl]benzene-1,4-diol], the figures for the solubility in series [1] (setting [3]) and in series [1] (setting [4]) were 550 mM (≈ 185 mg/mL) and 440 mM (≈ 148 mg/mL), respectively.
`Cc1c(O)c(CN2CCOCC2)c(C)c(O)c1CN1CCOCC1` [sym-DDHQ, 2,5-dimethyl-3,6-bis[(morpholin-4-yl)methyl]benzene-1,4-diol]: the solubility turned out to be 400 mM (≈ 135 mg/mL) in series [1] (setting [3]); 60 mM (≈ 20.2 mg/mL) in series [1] (setting [4]); 240 mM (≈ 80.7 mg/mL) in series [1] (1 M sulfuric acid, aqueous buffer, thermodynamic from solid, 1 M sulfuric acid, freshly obtained product, first polymorph, NMR method, read-out: Solubility of first polymorph in 1 M sulfuric acid).
